Test results as given in PubChem BioAssay AID179 (DTP/NCI, 2004).
The source made the active and inactive calls.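 Rule for the calls: active = compounds giving half or more protection of infected cells from virus-caused growth loss, again on retest; inactive = the rest.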

System: CEM cells HIV-1 protection, formazan growth assay
Test: NCI AIDS Antiviral Assay
Details: for IC50: measured here: growth of uninfected CEM cells
In short: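 Steps: treat uninfected and HIV-1-infected human CEM cells at five drug levels; quantify growth by soluble formazan; retest any compound reaching 50% protection; classify actives from the retest.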

| SMILES | EC50 [µM] | IC50 [µM] | outcome |
| --- | --- | --- | --- |
| CC(=O)Nc1ccc(N)c2cc(S(=O)(=O)O)ccc12 | > 200 | > 200 |  |
| CCC[CH2][Sn]1([CH2]CCC)[O]CC(COc2c(Cl)cc(Cl)cc2Cl)[O]1 (configuration not stated) | > 3.98 | 1.86 |  |
| CCCC(S(=O)(=O)c1ccccc1)S(=O)(=O)c1ccccc1 |  |  | inactive |
| COC(=O)/C(C#N)=C/c1ccco1 | > 200 | > 200 |  |
| Cc1oc2cc(O)ccc2c(=O)c1-c1ccccc1Br | > 200 | 16.6 |  |
| C[C@]12CC[C@H](O)CC1=CC[C@@H]1C2CC[C@]2(C)NC(=O)CCC12 (some centres not stated) |  |  | inactive |
| C=C1C(=O)O[C@H]2C1C[C@H](O)[C@@]1(C)OC1CC[C@@]1(C)O[C@H]21 (some centres not stated) | > 200 | 6.61 |  |
| CCOC(=O)C1=Nc2ccccc2N=C(C2C(=O)C=C(C)OC2=O)C1 (configuration not stated) | > 200 | > 200 |  |
| CN1CCN(c2cc3nc(-c4ccc(Cl)cc4)[nH]c3cc2F)CC1 | > 200 | 11.5 |  |
| OC12c3ccccc3C1CCCCCCCCCC21OCCO1 (configuration not stated) |  |  | inactive |
| CC12c3c4cc(Br)cc3Oc3cc(Br)cc(c31)Oc1cc(Br)cc(c12)O4 | > 200 | 33.1 |  |
| CC(=O)OC1CC2(c3ccccc3)C(=O)c3ccccc3N2O1 (configuration not stated) | > 115 | > 115 |  |
| COC1C(N)C(OC2C(Oc3cccc4c(O)c5c(=O)oc6ccc(C)c7c(=O)oc(c34)c5c67)OC(C)C(O)C2(C)O)OC(C)C1O (configuration not stated) | > 0.2 | 0.0363 |  |
| c1ccc2c(c1)CCN1CCc3ccccc3C1C2 (configuration not stated) | > 200 | 36.3 |  |
| O=c1[nH]c(=O)n(C2OC(CF)C(O)C2O)cc1Br (configuration not stated) | > 200 | > 200 |  |
| CCOC(=O)c1cnc2c(ccc3[nH]n(C)nc32)c1=O | > 251 | > 251 |  |
| O=C(NC/C(Br)=C/Br)Nc1cnc2ccccc2c1 | > 200 | 81.3 |  |
| CSc1cc(Cl)c(C(=O)Nc2ccccc2)cc1S(=O)(=O)n1cc[nH]c1=O | > 200 | > 200 |  |
| CC(=O)Nc1ccc(C(=O)CCC(NC(C)=O)(C(=O)O)C(=O)O)cc1 | > 200 | > 200 |  |
| O=C(O)Cc1cccc2c(=O)c3cccc([N+](=O)[O-])c3oc12 | > 200 | > 200 |  |
| Cc1cc(Br)cc(C)c1NC(=O)C(=O)Nn1c(=S)[nH]c2ccccc2c1=O | > 209 | > 209 |  |
| O=S(=O)(OC=C1CCCCC1)C(F)(F)F | > 107 | > 107 |  |
| COc1ccccc1NC(=O)CC(=O)n1nc(C)c(N=Nc2ccccc2C(=O)O)c1C | > 302 | 245 |  |

| SMILES | EC50 [µM] | IC50 [µM] | outcome |
| --- | --- | --- | --- |
| CC(C)[Si]1(C(C)C)OCC2OC(n3cnc4c(N)ncnc43)C(N)C2O[Si](C(C)C)(C(C)C)O1 (configuration not stated) | > 200 | 8.51 |  |
| C/C(=C(/C)c1ccc(O)cc1)c1ccc(O)cc1 | > 200 | 52.5 |  |
| OC(CCNC12CC3CC(CC(C3)C1)C2)c1ccccc1 (configuration not stated) |  |  | inactive |
| COc1ccc(NC(=O)CC2SC(=Nc3ccccc3C)NC2=O)c([N+](=O)[O-])c1 (configuration not stated) |  |  | inactive |
| COP(=O)(OC)C1c2ccccc2-c2cccc(C(=O)O)c21 (configuration not stated) | > 200 | > 200 |  |
| S=c1[nH]c(=S)c2cc(Sc3ccc4[nH]c(=S)[nH]c(=S)c4c3)ccc2[nH]1 | > 200 | > 200 |  |
| CC(=O)SC(C[N+](=O)[O-])c1ccc2c(c1)OCO2 (configuration not stated) | > 200 | 3.98 |  |
| C/C=C\C(O)C#Cc1cnc(OC)nc1OC (configuration not stated) | > 200 | 42.7 |  |
| O/N=C/C1C(OCc2ccccc2)C(OCc2ccccc2)C(OCc2ccccc2)CN1Cc1ccccc1 (configuration not stated) |  |  | inactive |
| COC(=O)c1cc(C)ccc1C1CN=NC12Cc1cccc(C)c1C2=O (configuration not stated) | > 200 | 26.9 |  |
| COc1ccc(C(=O)CC(c2ccc(OC)c(OC)c2)c2c(O)c3ccccc3oc2=O)cc1OC (configuration not stated) | > 200 | 117 |  |
| COc1ccc2c(C(=O)O)cc3cc(OC)c(OC)cc3c2c1 |  |  | inactive |
| COc1ccc(/C(=N/O)C(c2ccc(OC)cc2)C2C(=O)Oc3ccccc32)cc1 (configuration not stated) | > 17.8 | > 17.8 |  |
| N#Cc1c(N)c2c(c(-c3ccccc3)c1-c1ccccc1)C(=O)N(Nc1ccccc1)C2=O | > 200 | 27.5 |  |
| Cc1cccc(C(C)C)c1NC(=O)CC1C(=O)Nc2ccccc2S1(=O)=O (configuration not stated) | > 7.08 | > 7.08 |  |
| O=c1[nH]c(=O)n(C2OC(CO)C(O)C2O)c2ncncc12 (configuration not stated) | > 200 | > 200 |  |
| CCOC1(NC(=O)N(C)C)C2CCCCC21 (configuration not stated) | > 200 | > 200 |  |
| CC=C(c1cc(Cl)c(OC)c(C(=O)OC)c1)c1cc(Cl)c(OC)c(C(=O)OC)c1 | > 2 | 0.0631 |  |
| CN(C)CCNC(=O)c1cc([N+](=O)[O-])cc2c1Oc1ccccc1O2 | > 200 | 10.5 |  |
| Cc1nc2c(ccc3ncccc32)[nH]1 |  |  | inactive |
| O=C1[C@H](O)[C@@H]2CCC[C@@]23CCCN13 | > 200 | > 200 |  |
| COC[C@@H](N=CN1CCc2cc(OC)ccc2C1)C(C)C | > 871 | > 871 |  |
| FC(F)(F)c1nc(-c2ccccc2)oc1Sc1nnc(Sc2oc(-c3ccccc3)nc2C(F)(F)F)s1 |  |  | inactive |

| SMILES | EC50 [µM] | IC50 [µM] | outcome |
| --- | --- | --- | --- |
| COc1cccc(/C=N/[N-]C(N)=O)c1[O-].[Ni+2].[OH3+].c1ccc(-c2ccccn2)nc1 |  |  | inactive |
| O=c1c2cc(Br)cc(Br)c2[nH]c(=S)n1-c1ccccc1 | > 316 | 126 |  |
| CC1=Nc2ccccc2C1C(Cc1ccccc1N)c1c(C)[nH]c2ccccc12 (configuration not stated) |  |  | inactive |
| [Cu+2].[O-]/N=C/c1ccc(O)c(O)c1[O-].[O-]/N=C/c1ccc(O)c(O)c1[O-] |  |  | inactive |
| Oc1ccccc1C=Nc1ccc(Oc2ccc(Cl)cc2)c(Cl)c1 | > 200 | 13.2 |  |
| CCOC(=O)C1=C(NC(C)(C)C)OCC1=O |  |  | inactive |
| CC1=NS(=O)(=O)c2ccccc2N1 | > 1260 | > 1260 |  |
| CC(=Nc1ccccc1C(=O)[O-])c1c([O-])ccc2c(C)cc(=O)oc12.[Cu+2].[OH3+] | > 1.32 | > 1.32 |  |
| COc1cc2c(c3oc(=O)c4c(c13)CCC4=O)[C@@H]1C=CO[C@@H]1O2 | > 100 | 69.2 |  |
| CCOC(=O)N1Cc2ccoc2C1 | > 75.9 | > 75.9 |  |
| Cc1c(C)c(C)c2c(c1C)CC2=O | > 77.6 | > 77.6 |  |
| COC(=O)c1c(-c2ccccc2)c(C(O)c2ccccc2)n2ccccc12 (configuration not stated) | > 26.3 | 14.1 |  |
| COC(=O)/C=C/C1C(C(=O)OC)C2(C(=O)OC)CCC1(C(=O)OC)N2 (configuration not stated) |  |  | inactive |
| O=C(O)c1ccc(CSc2ccc([N+](=O)[O-])cc2)c([N+](=O)[O-])c1 | > 204 | > 100 |  |
| CC1(C)Oc2ccccc2N2O[C@@H]3C(=O)N(c4ccccc4)C(=O)[C@@H]3C21c1ccccc1 (some centres not stated) |  |  | inactive |
| N#Cc1nn(C2OC(COC(=O)c3ccccc3)C(OC(=O)c3ccccc3)C2OC(=O)c2ccccc2)c2nc[nH]c(=O)c12 (configuration not stated) | > 200 | 74.1 |  |
| c1ccc(OCC[P+](c2ccccc2)(c2ccccc2)c2ccccc2)cc1 | > 200 | 0.501 |  |
| COc1ccc(C2C(=O)C(Cl)N2Nc2nc(C)cc(=O)[nH]2)cc1OC (configuration not stated) | > 186 | 20.4 |  |
| CCOC(=O)C(=Cc1ccccc1F)C(=O)OCC | > 135 | 25.7 |  |
| CCOC(=O)C1Oc2ccc([N+](=O)[O-])cc2C1(C)O (configuration not stated) |  |  | inactive |
| COc1cc2oc(=O)cc(C)c2c(OC)c1OC | > 200 | > 200 |  |
| Oc1cc(Cl)cc2cccnc12 |  |  | inactive |
| Brc1ccccc1CCc1ncc[nH]1 | > 575 | 234 |  |

| SMILES | EC50 [µM] | IC50 [µM] | outcome |
| --- | --- | --- | --- |
| O=C1CC(=O)NC(=NN2C(=O)CSC2c2ccc(Cl)c(Cl)c2)N1 (configuration not stated) | > 200 | 102 |  |
| CN(NC(=O)c1ccc(Cl)cc1)C1=NCCCCN1 | > 200 | > 200 |  |
| OCCOCn1nc(-c2ccccc2)nc1-c1cnccn1 | > 200 | > 200 |  |
| N#C/C(C(=O)Nc1ccc(Cl)cc1)=C(/N)N1CCCC1 | > 200 | > 200 |  |
| C=CCNC(=S)/N=C/C(C(=O)Nc1ccccc1C)=C(\C)O | > 200 | > 200 |  |
| COc1ccc(/C=C2\CCCc3ccccc3C2=O)cc1 | > 200 | 0.145 |  |
| CCCC(CC)c1c(O)c(O)c(C(CC)CCC)c(C(CC)CCC)c1C(CC)CCC (configuration not stated) | > 100 | 15.5 |  |
| NC(N)=NS(=O)(=O)c1ccc(Nc2c3ccccc3nc3c(C(=O)NCCO)cccc23)cc1 | > 200 | 8.91 |  |
| C[N+]1(C)CCC(OC(=O)C(O)(c2ccccc2)C2CCCC2)C1 (configuration not stated) | > 200 | > 200 |  |
| CC12COC3(C)CCC(C)(OC1)N23 (configuration not stated) | > 490 | > 490 |  |
| O=C(Nc1ccc(/C=C\c2ccc(NC(=O)c3ccc4ccccc4c3O)cc2S(=O)(=O)O)c(S(=O)(=O)O)c1)c1ccc2ccccc2c1O | 126 | > 200 |  |
| N/C1=C/C(=O)NC(=O)c2c(c3ccccc3oc2=O)C1 | > 200 | > 200 |  |
| O=C1CSC(c2ccc(Cl)cc2)N1N1C(=O)CSC1c1ccc(Cl)cc1 (configuration not stated) | > 151 | > 151 |  |
| Cn1cnc(N)c(N=O)c1=O | > 200 | > 200 |  |
| Cn1cc2ccccc2c1-c1nc(F)nc(Oc2ccc3c(c2)CC[C@@H]2C3CC[C@@]3(C)C2C[C@H](O)[C@@H]3O)n1 (some centres not stated) | > 10 | > 10 |  |
| OCC(O)C(Cl)CCl (configuration not stated) | > 200 | > 200 |  |
| O=C(O)C(=Cc1ccc(-c2ccccc2)cc1)C(=O)O | > 251 | 15.5 |  |
| O=C1c2ccccc2C(=O)N1CCN(CCN1C(=O)c2ccccc2C1=O)Cn1cccn1 |  |  | inactive |
| Cc1c(C(=O)C/C(=N/NC(=O)c2ccccc2O)C(=O)Nc2ccccc2C(C)C)[n+](=O)c2ccccc2n1[O-] | > 6.92 | > 6.92 |  |
| OC(c1ccc2c(c1)OCO2)c1ccc2c(c1)OCO2 | > 200 | 178 |  |
| Cc1nc(-n2nc(-c3ccccc3)cc2-c2ccccc2)sc1C(=O)/C=C/c1ccc(Cl)c(Cl)c1 | > 26.3 | > 26.3 |  |
